Test results published in patent publication US11596696B2, “Combination therapy with an anti-CD25 antibody-drug conjugate” (ADC Therapeutics SA, priority 2017, dated 2023).

Columns and labels:
[1] = test system: IL2Ralpha (CD25) mRNA in KG-1 cells; assay: CD25 mRNA expression by TaqMan qRT-PCR (Example 9); type: cell-based; conditions: 30 nM Cytarabine
Method: (§1) Karpas-299, EOL-1 or KG-1 cells were incubated with 30 nM Cytarabine for 24 hours before mRNA was isolated and reverse-transcribed. cDNA was probed for IL2Ralpha (CD25) by TagMan qRT-PCR. Mean fold change in expression compared to the untreated control was calculated using the ddCT method using the reference gene abl-1. A time-course to measure expression change over 3-4 days was also done in Karpas-299 (high CD25 expressing) and KG-1 cells (low CD25 expressing) under the same conditions, only extending incubation time with Cytarabine.

[2] = test system: IL2Ralpha (CD25) mRNA in Karpas-299 cells; assay: CD25 mRNA expression by TaqMan qRT-PCR (Example 9); type: cell-based; conditions: Karpas299 cells; 30 nM Cytarabine; over the 72 hour period
Method: as §1

[3] = test system: surface CD25 on KG-1 cells; assay: Surface CD25 by flow cytometry (FACS) after Cytarabine (Example 5); type: cell-based; conditions: CD25(+) KG-1 cells (low CD25) incubated with Cytarabine
Method: (§2) After incubation, two parameters were measured: the amount of surface CD25 (as determined by flow cytometry) and the in vitro cytotoxicity of the combinations (as determined by CellTiter-Glo® or MTS assays). Cytotoxic synergy was calculated by transforming the cell viability data into fraction affected, and calculating the combination index (Table 1) using the CalcuSyn analysis program.

[4] = test system: surface CD25 on Karpas299 cell line; assay: as above; type: cell-based; conditions: Karpas299 cell line (high in CD25) incubated with Cytarabine
Method: as §2

[5] = test system: CD25 surface protein on Karpas-299 cells; assay: CD25 surface protein, antibodies bound per cell, QuantiBRITE-PE flow cytometry (Example 9); type: cell-based, human
Source text: (§3) Cells were then washed and run on a Fortessa X20 flow cytometer.

[6] = test system: CD25 surface protein on KG-1 cells; assay: as above; type: cell-based, human
Source text: as §3

[7] = test system: surface CD25 on Karpas299 cell line; assay: Surface CD25 by flow cytometry after decitabine (Example 6); type: cell-based; design: dose or concentration left out as unconfirmed; conditions: in the presence of decitabine
Method: After incubation, two parameters were measured: the amount of surface CD25 (as determined by flow cytometry) and the in vitro cytotoxicity of the combinations (as determined by MTS assays).

advanced melanoma = conditions: phase III; compared to the standard of care (temozolomide or dacarbazine); cited from earlier work

## Nc1ccn([C@@H]2O[C@H](CO)C(O)[C@@H]2O)c(=O)n1 (stereo in doubt) [Cytarabine, 4-amino-1-[(2R,3S,4R,5R)-3,4-dihydroxy-5-(hydroxymethyl)oxolan-2-yl] pyrimidin-2-one]
[1]; after 24 hours incubation
  Increase in CD25 mRNA expression vs untreated control: 2 fold
[1]; after 48 hours incubation
  Increase in CD25 mRNA expression vs untreated control: 4 fold
[1]; after 96 hours incubation
  Increase in CD25 mRNA expression vs untreated control: 3 fold
[2]
  Effect on CD25 mRNA expression: little effect
[3]
  Change in surface CD25 levels (FACS analysis): two-fold increase
[4]
  Change in surface CD25: No increase
[5]; Karpas299 cells treated with 30 nM Cytarabine 24 hours (untreated the same)
  Mean number of CD25 antibodies bound per cell: ~60000 antibodies per cell
[5]; Karpas299 cells, 30 nM Cytarabine, 24 hour period
  Effect on CD25 surface protein expression: little effect
[6]; KG-1 cells treated with 30 nM Cytarabine 24 hours (untreated ~200)
  Mean number of CD25 antibodies bound per cell: ~400 antibodies per cell
[6]; KG-1 cells, 30 nM Cytarabine, 24 hours
  Levels of CD25 surface expression: significantly increased

## Nc1ncn([C@H]2C[C@H](O)[C@@H](CO)O2)c(=O)n1 [Decitabine, 4-Amino-1-(2-deoxy-β-D-erythro-pentofuranosyl)-1,3,5-triazin-2(1H)-one]
[7]
  Amount of CD25 on the cells: no difference

## tremelimumab: anti-CTLA4 antibody
Advanced melanoma
  Overall survival of patients: did not significantly increase the overall survival
